Structures are written as SMILES.

Assay [1] addresses D(2) dopamine receptor (Rattus norvegicus, UniProt P61169). Nature of the assay: Binding affinity towards rat dopamine D2 receptor using [11C] radiotracer.
For assay [2], the target named is T1, D(4) dopamine receptor (Rattus norvegicus, UniProt P30729).
T1 sequence (P30729 whole entry): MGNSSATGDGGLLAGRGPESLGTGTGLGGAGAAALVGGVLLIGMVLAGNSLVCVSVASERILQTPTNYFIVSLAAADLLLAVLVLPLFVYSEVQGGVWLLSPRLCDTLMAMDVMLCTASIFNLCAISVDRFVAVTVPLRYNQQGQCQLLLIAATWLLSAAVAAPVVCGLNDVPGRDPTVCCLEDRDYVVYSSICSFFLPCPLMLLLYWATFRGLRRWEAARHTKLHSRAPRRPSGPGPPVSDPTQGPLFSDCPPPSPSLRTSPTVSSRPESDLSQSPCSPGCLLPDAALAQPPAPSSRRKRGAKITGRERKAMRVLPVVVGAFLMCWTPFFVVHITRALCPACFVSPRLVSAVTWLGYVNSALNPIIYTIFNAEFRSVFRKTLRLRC
Nature of the assay: Binding affinity for rat dopamine D4 receptor using [11C] radiotracer.

For assay [3], the target named is Sigma non-opioid intracellular receptor 1 (Rattus norvegicus, UniProt Q9R0C9). Briefly: Binding affinity for rat Opioid receptor sigma 1 using [11C] radiotracer.
The target in assay [4] is D(3) dopamine receptor (Rattus norvegicus, UniProt P19020). Nature of the assay: Binding affinity for rat dopamine D3 receptor using [11C]GR-218,231.
The target of assay [5] is D(3) dopamine receptor (Rattus norvegicus) (UniProt P19020).
D(3) dopamine receptor (Rattus norvegicus), sequence (P19020 whole entry): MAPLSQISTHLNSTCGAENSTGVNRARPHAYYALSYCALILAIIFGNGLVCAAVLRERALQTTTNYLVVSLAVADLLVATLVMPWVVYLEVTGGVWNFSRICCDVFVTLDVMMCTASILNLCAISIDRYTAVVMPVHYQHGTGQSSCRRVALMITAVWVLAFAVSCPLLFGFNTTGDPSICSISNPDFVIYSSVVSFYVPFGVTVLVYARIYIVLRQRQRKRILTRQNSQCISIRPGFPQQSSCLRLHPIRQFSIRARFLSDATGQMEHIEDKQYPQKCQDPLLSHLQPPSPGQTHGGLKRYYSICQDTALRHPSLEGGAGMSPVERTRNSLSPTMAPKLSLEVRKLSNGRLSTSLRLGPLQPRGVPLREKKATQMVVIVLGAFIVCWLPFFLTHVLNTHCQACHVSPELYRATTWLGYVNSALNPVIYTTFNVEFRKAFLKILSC

D(2) dopamine receptor, sequence (P61169 whole entry): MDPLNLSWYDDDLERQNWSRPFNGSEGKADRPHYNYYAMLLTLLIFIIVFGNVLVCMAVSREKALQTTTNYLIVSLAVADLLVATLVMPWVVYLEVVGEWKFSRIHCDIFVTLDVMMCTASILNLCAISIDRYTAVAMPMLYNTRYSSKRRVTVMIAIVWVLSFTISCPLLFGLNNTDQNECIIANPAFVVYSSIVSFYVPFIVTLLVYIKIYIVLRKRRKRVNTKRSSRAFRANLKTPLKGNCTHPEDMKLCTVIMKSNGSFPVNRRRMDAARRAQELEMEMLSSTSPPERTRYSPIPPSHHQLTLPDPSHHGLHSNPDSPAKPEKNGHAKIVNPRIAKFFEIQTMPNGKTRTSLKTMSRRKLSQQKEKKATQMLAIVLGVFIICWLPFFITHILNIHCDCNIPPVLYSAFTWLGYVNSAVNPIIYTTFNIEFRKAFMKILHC
Sigma non-opioid intracellular receptor 1, sequence (Q9R0C9 whole entry): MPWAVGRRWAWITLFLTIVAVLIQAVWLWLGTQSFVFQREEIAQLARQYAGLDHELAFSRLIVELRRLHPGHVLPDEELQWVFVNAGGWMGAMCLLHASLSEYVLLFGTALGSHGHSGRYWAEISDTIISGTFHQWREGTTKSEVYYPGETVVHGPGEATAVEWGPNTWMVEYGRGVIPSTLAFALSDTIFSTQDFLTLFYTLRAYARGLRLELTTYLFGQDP
D(3) dopamine receptor, sequence (P19020 whole entry): as the sequence (P19020 whole entry) above

Usually Ki stands for the dissociation constant of the complex between target and ligand, obtained from inhibition or displacement. `COc1cccc2cc(C(=O)NCCCCN3CCN(c4cccc(Cl)c4Cl)CC3)oc12`: the Ki was 720 nM in assay [1], 373 nM in assay [2] and 180 nM in assay [3].

As for `COc1cc(Br)cc(C(=O)NCCCCN2CCN(c3cccc(Cl)c3Cl)CC2)c1OC`, in assay [4], the Ki stood at 2 nM.

For `COc1c(C(=O)NCCCCN2CCN(c3cccc(Cl)c3Cl)CC2)ccc2ccccc12`, the Ki in assay [1] worked out at 720 nM; in assay [2], 830 nM; in assay [3] it was 342 nM.

In general, pKi refers to the Ki on a negative log10 scale, so that one unit is a factor of ten. With `CCCN(CCC)C1CCc2cc(CS(=O)(=O)c3ccc(OC)cc3)ccc2C1` (stereo not drawn), the pKi in assay [5] amounted to 9.

For the origin of these results see ChEMBL document CHEMBL1140382, “11C-labeling of n-[4-[4-(2,3-dichlorophenyl)piperazin-1-yl]butyl]arylcarboxamide derivatives and evaluation as potential radioligands for PET imaging of dopamine D3 receptors” (J Med Chem, 2005).
